From patent US9040458B2, “Safening composition of 6-(trisubstituded phenyl)-4-amino-2-pyridinecarboxylate herbicides and cloquintocet-mexyl for cereal crops” (Dow AgroSciences LLC, priority 2008, dated 2015)
Where a name gives a salt, the structure may show the parent alone.

Assays:
[1] = system: TRZDU = Triticum durum (durum wheat); experiment: Postemergence herbicidal safening, greenhouse, visual injury; type: in vivo; details: applied alone at 140 g/ha; 20-22 d
Description: (§1) Seeds of the desired test plant species were planted in Sun Gro MetroMix® 306 planting mixture, which typically has a pH of 6.0 to 6.8 and an organic matter content of about 30 percent, in plastic pots with a surface area of 103.2 square centimeters (cm^2). When required to ensure good germination and healthy plants, a fungicide treatment and/or other chemical or physical treatment was applied. The plants were grown for 7-36 days (d) in a greenhouse with an approximate […] photoperiod which was maintained at about 18° C. during the day and 17° C. during the night. Nutrients and water were added on a regular basis and supplemental lighting was provided with overhead metal halide 1000-Watt lamps as necessary. The plants were employed for testing when they reached the second or third true leaf stage.
(§2) Weighed amounts of esters (methyl) or salts (TEA [triethylammonium], potassium [K]) of 4-amino-3-chloro-6-(4-chloro-2-fluoro-3-methoxyphenyl)pyridine-2-carboxylic acid (Compound 1) were dissolved in a volume of 97:3 volume/volume (v/v) acetone/dimethylsulfoxide (DMSO) to obtain stock solutions. […] The concentrated stock solutions were diluted with an aqueous mixture of 1.5% v/v of Agri-dex crop oil concentrate to provide the appropriate application rates. Compound requirements are based upon a 12 mL application volume at a rate of 187 liters per hectare (L/ha). Stocks solutions of the safeners were prepared following the same procedure. Spray solutions of the safeners and experimental compound mixtures were prepared by adding the appropriate volume of both stock solutions to the appropriate amount of dilution solution to form a 12 mL spray solution with active ingredients in two-way combinations. Formulated compounds were applied to the plant material with an overhead Mandel track sprayer equipped with 8002E nozzles calibrated to deliver 187 L/ha over an application area of 0.503 square meters (m^2) at a spray height of 18 inches (43 centimeters (cm)) above average plant canopy. Control plants were sprayed in the same manner with the solvent blank.
(§3) The treated plants and control plants were placed in a greenhouse as described above and watered by sub-irrigation to prevent wash-off of the test compounds. After 20-22 d, the condition of the test plants as compared with that of the control plants was determined visually and scored on a scale of 0 to 100 percent where 0 corresponds to no injury and 100 corresponds to complete kill.
(§4) Colby's equation was used to determine the herbicidal effects expected from the mixtures (Colby, S. R., Calculation of the synergistic and antagonistic response of herbicide combinations. Weeds 1967, 15, 20-22.).
(§5) The following equation was used to calculate the expected activity of mixtures containing two active ingredients, A and B: Expected=A+B−(A×B/100)
(§6) A=observed efficacy of active ingredient A at the same concentration as used in the mixture.
(§7) B=observed efficacy of active ingredient B at the same concentration as used in the mixture.

[2] = system: TRZAW = Triticum aestivum (winter wheat); experiment: as above; type: in vivo; details: applied alone at 140 g/ha; 20-22 d; listed as (1) TEA salt
Description: as §1, §2, §3, §4, §5, §6, §7

[3] = system: TRZAS = Triticum aestivum (spring wheat); experiment: as above; type: in vivo; details: 20-22 d, listed as (1) TEA salt
Description: as §1, §2, §3, §4, §5, §6, §7

[4] = system: HORVS = Hordeum vulgare (spring barley); experiment: as above; type: in vivo; details: 20-22 d, listed as (1) TEA salt
Description: as §1, §2, §3, §4, §5, §6, §7

[5] = system: POLCO (wild buckwheat); experiment: Postemergence herbicidal activity, greenhouse, visual injury; type: in vivo, Polygonum convolvulus; details: applied alone at 140 g/ha; 20-22 d
Description: as §1, §2, §3, §4, §5, §6, §7

[6] = system: MATCH = Matricaria chamomila (scented mayweed); experiment: as above; type: in vivo; details: applied alone at 140 g/ha; 20-22 d; listed as (1) TEA salt
Description: as §1, §2, §3, §4, §5, §6, §7

[7] = system: STEME = Stellaria media (common chickweed); experiment: as above; type: in vivo; details: applied alone at 140 g/ha; 20-22 d
Description: as §1, §2, §3, §4, §5, §6, §7

[8] = system: KCHSC = Kochia scoparia (kochia); experiment: as above; type: in vivo; details: applied alone at 140 g/ha; 20-22 d; listed as (1) TEA salt
Description: as §1, §2, §3, §4, §5, §6, §7

[9] = system: VIOTR = Viola tricolor (wild pansy); experiment: as above; type: in vivo; details: applied alone at 140 g/ha; 20-22 d; listed as (1) TEA salt
Description: as §1, §2, §3, §4, §5, §6, §7

[10] = system: VERPE = Veronica persica (bird's-eye speedwell); experiment: as above; type: in vivo; details: applied alone at 140 g/ha; 20-22 d; listed as (1) TEA salt
Description: as §1, §2, §3, §4, §5, §6, §7

[11] = system: SASKR = Salsola iberica (Russian thistle); experiment: as above; type: in vivo; details: applied alone at 140 g/ha; 20-22 d; listed as (1) TEA salt
Description: as §1, §2, §3, §4, §5, §6, §7

[12] = system: LAMPU (purple deadnettle); experiment: as above; type: in vivo, Lamium purpureum; details: applied alone at 140 g/ha; 20-22 d
Description: as §1, §2, §3, §4, §5, §6, §7

[13] = system: HORVW (winter barley); experiment: Postemergence herbicidal safening, greenhouse, visual injury; type: in vivo, Hordeum vulgare; details: applied alone at 140 g/ha; 20-22 d; listed as (1) TEA salt
Description: as §1, with “stage. […]” for “stage.”
as §3, with “kill. […]” for “kill.”

[14] = system: PAPRH (corn poppy); experiment: Postemergence herbicidal activity, greenhouse, visual injury; type: in vivo, Papaver rhoeas; details: applied alone at 140 g/ha; 20-22 d
Description: as §1, §2, §3, §4, §5, §6, §7

COc1c(Cl)ccc(-c2cc(N)c(Cl)c(C(=O)O)n2)c1F [Compound (1) TEA salt, 4-amino-3-chloro-6-(4-chloro-2-fluoro-3-methoxyphenyl)pyridine-2-carboxylic acid]
TRZDU Ob (observed injury) [1]: 10% | TRZAW Ob (observed injury) [2]: 24% | TRZAS Ob (observed injury) ([3]; applied alone at 8.75 g/ha): 5% | TRZAS Ob (observed injury) ([3]; applied alone at 35 g/ha): 15% | TRZAS Ob (observed injury) ([3]; applied alone at 70 g/ha): 10% | TRZAS Ob (observed injury) ([3]; applied alone at 140 g/ha): 27% | HORVS Ob (observed injury) ([4]; applied alone at 8.75 g/ha): 25% | HORVS Ob (observed injury) ([4]; applied alone at 35 g/ha): 23% | HORVS Ob (observed injury) ([4]; applied alone at 140 g/ha): 23% | POLCO Ob (observed injury) [5]: 100% | MATCH Ob (observed injury) [6]: 84% | STEME Ob (observed injury) [7]: 88% | KCHSC Ob (observed injury) [8]: 95% | VIOTR Ob (observed injury) [9]: 66% | VERPE Ob (observed injury) [10]: 89% | SASKR Ob (observed injury) [11]: 86% | LAMPU Ob (observed injury) [12]: 98% | HORVW Ob (observed injury) [13]: 15% | PAPRH Ob (observed injury) [14]: 100%
